Assay results reported in patent US7517646B2, “Functional molecule and process for producing the same” (Fujitsu Limited, priority 2002, dated 2009).

Target: human albumin (Homo sapiens, UniProt P02768)
Test: affinity column filled with beads bound with human albumin; binding of the selected functional molecule
Conditions: functional molecule selected from the random polymer pool N20-M20-N20 on a human albumin affinity column
Experimental: First, an affinity column, which was filled with beads bound with human albumin as the target, was prepared and a solution containing the random polymer pool was passed through this column to leave at a specific condition and, then, the modified oligonucleotide sequence showing the affinity to the target adsorbed to the column (FIG. 3B). Subsequently, remained components other than the remained oligonucleotide sequence were removed by washing sufficiently with a buffer solution and the solution containing human albumin was passed through the column to select and collect the oligonucleotide containing the modified oligonucleotide random sequence (FIG. 3C). The step described above is the selecting step.
This selected modified oligonucleotide sequence was amplified by PCR followed by cloning to know the base sequence of the DNA. As the result, a portion of the base sequence of the determined modified oligonucleotide was “ATGCTCTAGCCCCT” (SEQ ID NO: 1) (FIG. 3D). The step described above is the determining step.
Translating this base sequence on the basis of the relation table presented “AU1GC6U4CU3AGC6C3CC5T” resulting in identification of a structure of the functional molecule (FIG. 3D). The step described above is the translating step.

Chain of human albumin (P02768 25-609): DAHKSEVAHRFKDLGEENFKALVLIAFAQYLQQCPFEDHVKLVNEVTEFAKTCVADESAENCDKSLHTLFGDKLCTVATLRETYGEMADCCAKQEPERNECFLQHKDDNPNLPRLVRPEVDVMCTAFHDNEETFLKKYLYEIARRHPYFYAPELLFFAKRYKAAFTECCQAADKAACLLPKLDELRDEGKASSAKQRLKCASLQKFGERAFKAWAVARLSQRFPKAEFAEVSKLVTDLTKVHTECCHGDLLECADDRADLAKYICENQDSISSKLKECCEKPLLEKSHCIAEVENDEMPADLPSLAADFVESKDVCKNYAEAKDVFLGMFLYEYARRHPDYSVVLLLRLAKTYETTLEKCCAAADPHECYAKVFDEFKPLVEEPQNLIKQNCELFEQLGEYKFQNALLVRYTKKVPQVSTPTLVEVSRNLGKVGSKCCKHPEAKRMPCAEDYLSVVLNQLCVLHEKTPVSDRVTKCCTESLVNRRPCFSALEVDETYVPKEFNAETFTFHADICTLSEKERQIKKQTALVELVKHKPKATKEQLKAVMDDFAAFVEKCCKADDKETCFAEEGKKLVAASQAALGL

AU1GC6U4CU3AGC6C3CC5T (AUGCUCUAGCCCCT; modified nucleotides, further chemistry not given here) [functional molecule]
binding to human albumin: bound specifically with human albumin
